Assay results reported in US20240410898A1, “METHOD FOR DETECTING PROTEIN HAVING CHANGES IN ENERGY STATE, OR AFFINITY OF LIGAND TO PROTEIN” (DALIAN INSTITUTE OF CHEMICAL PHYSICS, CHINESE ACADEMY OF …, priority 2022, published 2024).
pKd: −log10 of the molar value.

Columns and labels:
[1] = tested on: metal ion-binding proteins in HeLa cell lysate; test: PELSA, zinc chloride-treated HeLa cell lysate; conditions: −log 10Pvalue>6 and log 2FC>0
[2] = tested on: metal ion-binding proteins in HeLa cell lysate; test: PELSA, zinc chloride-treated HeLa cell lysate; conditions: 30 μM zinc chloride
Method: After cell lysis following the procedure described in Example 1, the added EDTA was removed using Zeba Spin desalting columns (Thermo Fisher Scientific) through two rounds of protein desalting. A final concentration of 30 μM zinc chloride (Sigma, catalog number 450111-10G) was added to the 50 μL cell lysate, serving as the experimental group. Proteins meeting the criteria of −log 10Pvalue>3 and log 2FC<−0.5 were considered as proteins stabilized by Zn2+.

MAT2A and AKR1C2 = test: dimethyl labeling-based PELSA, MAT2A and AKR1C2; type: binding; conditions: 100 μM
AKR1C2 = target: T1, AKR1C2 (Homo sapiens, UniProt P52895); test: thermal shift assay with purified AKR1C2; type: binding; conditions: purified protein
T1 construct: made in house
T1 sequence (P52895 1-323): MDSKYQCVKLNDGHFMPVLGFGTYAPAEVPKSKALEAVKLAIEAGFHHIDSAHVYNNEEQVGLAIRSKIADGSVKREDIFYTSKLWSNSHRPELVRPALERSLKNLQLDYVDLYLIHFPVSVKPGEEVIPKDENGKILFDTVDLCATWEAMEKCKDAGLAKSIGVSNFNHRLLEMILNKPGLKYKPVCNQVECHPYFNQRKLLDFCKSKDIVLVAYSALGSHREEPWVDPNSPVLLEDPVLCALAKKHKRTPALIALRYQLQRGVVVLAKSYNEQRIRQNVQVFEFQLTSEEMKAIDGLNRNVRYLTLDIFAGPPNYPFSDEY
From the text: (§1) HSP90 proteins consist of three domains: the N-terminal ATP-binding domain, the middle domain, and the C-terminal domain. […] This finding further supports the capability of PELSA to accurately identify protein regions with changes in energy state. In addition to known target proteins, PELSA also identified several off-target proteins. […] PRDX family proteins play a protective role by clearing ROS under oxidative stress conditions.

MAT2A = target: T2, MAT2A (Homo sapiens, UniProt P31153); test: thermal shift assay with purified MAT2A; type: binding; conditions: purified protein
T2 construct: made in house
From the text: as §1

ERBB2 [3] = target: T3, ERBB2 (Homo sapiens, UniProt P04626); test: PELSA, lapatinib-treated BT474 cell lysate; type: binding
[4] = tested on: CHEK2, SLK, RIPK2, and YES1; test: PELSA, lapatinib-treated BT474 cell lysate, off-target kinases; type: binding; conditions: increased lapatinib concentration (1 μM and above)
PTGES2 [5] = target: T4, PTGES2 (Homo sapiens, UniProt Q9H7Z7); test: Western blotting of undigested PTGES2 after trypsin digestion; type: binding; design: collect the supernatant as the cell lysate; endogenous in cells; host or cells: BT474 cell lysate
Method: To validate the binding of PTGES2 and lapatinib, we performed Western blotting using a similar procedure and conditions as mentioned above, with the following modifications: The lysis buffer is PBS. After lysis, the resulting cell lysates were divided into 8 portions and treated with equal volumes of lapatinib at different final concentrations (lapatinib dissolved in DMSO), as well as DMSO, resulting in final lapatinib concentrations of 100 μM, 50 μM, 10 μM, 1 μM, 0.1 μM, 0.01 μM, 0.001 μM, and 0. The mixtures were incubated at room temperature (25° C.) for 30 minutes. After incubation, trypsin was added at a 1:40 protease-to-protein weight ratio, and the mixture was subjected to digestion at 37° C. for 1 minute. The digestion was terminated by heating the samples to 95° C., followed by the addition of ¼ volume of 5*loading buffer, and heating at 95° C. for another 5 minutes. Western blotting was employed to detect the undigested proteins. The gel was concentrated at 80 V for 20 minutes, and then separated at 120 V for 60 minutes. Transfer blotting was conducted at a constant current of 250 mA for 40 minutes. After blocking, the primary antibody against PTGES2 (Proteintech, USA) was added at a 1:800 dilution and incubated at room temperature for 1 hour. […] The undigested protein bands were quantified based on their intensities, using GAPDH as a reference protein. […]

ERBB2 [6] = target: T3, ERBB2; conditions: cited from earlier work
PTGES2 [7] = target: T4, PTGES2; test: PELSA, lapatinib-treated BT474 cell lysate, non-kinase off-target; conditions: high concentrations of lapatinib
Method: (1) Take a dish of BT474 cells (approximately 5e7 cells) and resuspend them in 1 mL lysis buffer (PBS supplemented with 1% (v/v) protease inhibitor (Sigma, catalog number P8340-5 mL)). Freeze-thaw the mixture three times (freeze in liquid nitrogen for two minutes, thaw in a 37° C. water bath for two minutes, repeat three times) to obtain crude cell lysates. Centrifuge the crude cell lysates at 500 g, 4° C. for 10 minutes, and collect the supernatant as the cell lysate. Determine the protein concentration using the Pierce™ 660 nm Protein Assay (Thermo, USA).
(2) Adjust the protein concentration of the cell lysate to 1 mg/mL using cell lysis buffer. […]
(6) The above-mentioned peptide mixture was reconstituted in 20 μL of 0.1% (v/v) formic acid (Sigma, Catalog No. V900803) and subjected to LC-MS/MS analysis. Each sample was analyzed once using data-independent acquisition (DIA) mass spectrometry. The Spectronaut software was used to identify and quantify the peptides, providing information on the corresponding protein, the peptide's location within the protein, and its abundance in each sample.
(7) The abundance of peptides in the lapatinib-treated and untreated groups was statistically evaluated using Empirical Bayes t-test to determine the P-value and fold change for each peptide, representing the significance and magnitude of the peptide's abundance change upon lapatinib treatment. […]

[8] = tested on: LARS1, LARS2, GLUD1, and SENS2; test: PELSA, leucine-treated K562 cell lysate, known targets; type: binding; conditions: 5 mM leucine
From the text: (§2) These findings indicate the ability of PELSA to differentiate between distinct binding sites on a single protein. […] SLC1A5 is a membrane protein comprising intracellular, transmembrane, and extracellular regions. The Na-dicarboxylate_symporter domain (residues 54-483), located in the extracellular region, plays a key role in amino acid transport.

SLC1A5 = target: T5, SLC1A5 (Homo sapiens, UniProt Q15758); test: PELSA, leucine-treated K562 cell lysate, SLC1A5; type: binding; conditions: 5 mM leucine
T5 construct: Protein-level volcano plot corresponding to 5 mM leucine-treated K562 cell lysates; endogenous in cells; host or cells: K562 cell lysate
T5 sequence (Q15758 1-541): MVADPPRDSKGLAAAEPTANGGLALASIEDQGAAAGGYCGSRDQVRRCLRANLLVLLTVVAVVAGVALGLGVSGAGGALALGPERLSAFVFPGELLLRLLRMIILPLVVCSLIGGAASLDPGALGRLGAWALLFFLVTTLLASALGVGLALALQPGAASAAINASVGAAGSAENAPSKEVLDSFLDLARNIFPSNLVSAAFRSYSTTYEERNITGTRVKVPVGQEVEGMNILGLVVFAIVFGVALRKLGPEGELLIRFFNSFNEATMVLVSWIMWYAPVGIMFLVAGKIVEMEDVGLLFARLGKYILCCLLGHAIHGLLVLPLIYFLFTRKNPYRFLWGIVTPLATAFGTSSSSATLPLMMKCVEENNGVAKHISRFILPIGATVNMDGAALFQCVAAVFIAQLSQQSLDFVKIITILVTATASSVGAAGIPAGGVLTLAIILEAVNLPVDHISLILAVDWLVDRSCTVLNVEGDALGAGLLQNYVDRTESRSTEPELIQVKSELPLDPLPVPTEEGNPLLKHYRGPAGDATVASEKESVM
From the text: as §2

LARS1 = LARS1 (Homo sapiens, UniProt Q9P2J5); conditions: Kim S, et al., Cell Reports, 2021; read-out: dissociation constant, leucine-LARS1; cited from earlier work
PPIP5K1 and PPIP5K2 = test: PELSA, leucine-treated K562 cell lysate, PPIP5K1/2; type: binding; conditions: 5 mM leucine, histidine phosphatase domains
From the text: as §2

[9] = tested on: kinases in K562 and HeLa lysates
From the text: (§3) We further compared the protein and peptide coverage depths of LiP-Quant, TPP, and PELSA.

[10] = tested on: kinases in HeLa cell lysates; conditions: kinase proportion ≥80%; cited from earlier work
[11] = tested on: kinases in K562 cell lysates; conditions: cited from earlier work
[12] = tested on: kinases in K562 cell lysate; test: PELSA, staurosporine-treated K562 cell lysate; type: binding; conditions: 20 μM staurosporine
From the text: as §3

[13] = tested on: kinases in HeLa cell lysate; conditions: 20 μM staurosporine
From the text: as §3

PTPN11 = PTPN11 (Homo sapiens, UniProt Q06124); test: PELSA compared with LiP-MS, SHP099-treated HeLa cell lysate; type: binding
[14] = tested on: proteins of Escherichia coli; conditions: Piazza I et al., Cell, 2018; cited from earlier work

T3 sequence (P04626 23-1255): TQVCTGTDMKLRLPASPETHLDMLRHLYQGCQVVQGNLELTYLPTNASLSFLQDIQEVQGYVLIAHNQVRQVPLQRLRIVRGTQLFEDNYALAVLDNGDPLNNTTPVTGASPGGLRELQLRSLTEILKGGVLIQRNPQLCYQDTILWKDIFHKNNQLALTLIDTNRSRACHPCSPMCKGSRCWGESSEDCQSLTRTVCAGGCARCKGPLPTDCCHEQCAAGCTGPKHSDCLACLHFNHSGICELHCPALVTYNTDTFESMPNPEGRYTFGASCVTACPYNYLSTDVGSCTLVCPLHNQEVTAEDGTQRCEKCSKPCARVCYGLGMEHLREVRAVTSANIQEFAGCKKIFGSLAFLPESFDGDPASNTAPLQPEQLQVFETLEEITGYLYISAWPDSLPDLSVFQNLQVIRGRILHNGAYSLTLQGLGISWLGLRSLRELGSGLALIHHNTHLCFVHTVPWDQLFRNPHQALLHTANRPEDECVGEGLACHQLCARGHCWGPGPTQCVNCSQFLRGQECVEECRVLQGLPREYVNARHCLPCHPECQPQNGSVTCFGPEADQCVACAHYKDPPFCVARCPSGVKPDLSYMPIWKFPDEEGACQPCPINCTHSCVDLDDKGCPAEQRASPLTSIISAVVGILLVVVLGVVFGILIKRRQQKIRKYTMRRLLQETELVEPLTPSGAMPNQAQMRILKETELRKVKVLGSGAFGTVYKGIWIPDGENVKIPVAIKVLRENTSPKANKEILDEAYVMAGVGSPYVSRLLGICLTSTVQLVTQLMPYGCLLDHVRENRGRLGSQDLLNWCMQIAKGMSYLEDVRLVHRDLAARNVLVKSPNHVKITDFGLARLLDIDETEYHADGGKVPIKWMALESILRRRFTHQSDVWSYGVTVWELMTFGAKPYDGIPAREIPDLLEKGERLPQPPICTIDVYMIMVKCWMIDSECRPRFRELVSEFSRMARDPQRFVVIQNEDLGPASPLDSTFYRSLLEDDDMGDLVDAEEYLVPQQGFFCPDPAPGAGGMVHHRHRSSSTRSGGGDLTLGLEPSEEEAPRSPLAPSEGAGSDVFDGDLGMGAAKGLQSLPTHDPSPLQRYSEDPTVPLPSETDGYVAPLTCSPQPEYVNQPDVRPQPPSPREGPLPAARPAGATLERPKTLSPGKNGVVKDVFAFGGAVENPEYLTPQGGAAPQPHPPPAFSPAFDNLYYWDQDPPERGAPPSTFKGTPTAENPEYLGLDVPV
T4 sequence (Q9H7Z7 whole entry): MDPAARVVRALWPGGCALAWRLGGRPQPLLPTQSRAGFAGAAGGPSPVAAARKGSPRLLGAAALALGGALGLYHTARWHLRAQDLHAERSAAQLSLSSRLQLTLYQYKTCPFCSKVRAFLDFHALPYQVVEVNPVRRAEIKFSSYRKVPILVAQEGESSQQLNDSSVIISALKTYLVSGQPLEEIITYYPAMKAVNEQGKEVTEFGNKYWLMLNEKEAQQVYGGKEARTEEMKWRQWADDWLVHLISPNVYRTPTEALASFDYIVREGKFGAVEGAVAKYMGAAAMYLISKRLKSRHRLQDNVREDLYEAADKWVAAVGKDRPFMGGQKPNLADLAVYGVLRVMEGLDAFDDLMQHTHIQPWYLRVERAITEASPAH
LARS1, sequence (Q9P2J5 whole entry, species assumed, the tested form may be a part): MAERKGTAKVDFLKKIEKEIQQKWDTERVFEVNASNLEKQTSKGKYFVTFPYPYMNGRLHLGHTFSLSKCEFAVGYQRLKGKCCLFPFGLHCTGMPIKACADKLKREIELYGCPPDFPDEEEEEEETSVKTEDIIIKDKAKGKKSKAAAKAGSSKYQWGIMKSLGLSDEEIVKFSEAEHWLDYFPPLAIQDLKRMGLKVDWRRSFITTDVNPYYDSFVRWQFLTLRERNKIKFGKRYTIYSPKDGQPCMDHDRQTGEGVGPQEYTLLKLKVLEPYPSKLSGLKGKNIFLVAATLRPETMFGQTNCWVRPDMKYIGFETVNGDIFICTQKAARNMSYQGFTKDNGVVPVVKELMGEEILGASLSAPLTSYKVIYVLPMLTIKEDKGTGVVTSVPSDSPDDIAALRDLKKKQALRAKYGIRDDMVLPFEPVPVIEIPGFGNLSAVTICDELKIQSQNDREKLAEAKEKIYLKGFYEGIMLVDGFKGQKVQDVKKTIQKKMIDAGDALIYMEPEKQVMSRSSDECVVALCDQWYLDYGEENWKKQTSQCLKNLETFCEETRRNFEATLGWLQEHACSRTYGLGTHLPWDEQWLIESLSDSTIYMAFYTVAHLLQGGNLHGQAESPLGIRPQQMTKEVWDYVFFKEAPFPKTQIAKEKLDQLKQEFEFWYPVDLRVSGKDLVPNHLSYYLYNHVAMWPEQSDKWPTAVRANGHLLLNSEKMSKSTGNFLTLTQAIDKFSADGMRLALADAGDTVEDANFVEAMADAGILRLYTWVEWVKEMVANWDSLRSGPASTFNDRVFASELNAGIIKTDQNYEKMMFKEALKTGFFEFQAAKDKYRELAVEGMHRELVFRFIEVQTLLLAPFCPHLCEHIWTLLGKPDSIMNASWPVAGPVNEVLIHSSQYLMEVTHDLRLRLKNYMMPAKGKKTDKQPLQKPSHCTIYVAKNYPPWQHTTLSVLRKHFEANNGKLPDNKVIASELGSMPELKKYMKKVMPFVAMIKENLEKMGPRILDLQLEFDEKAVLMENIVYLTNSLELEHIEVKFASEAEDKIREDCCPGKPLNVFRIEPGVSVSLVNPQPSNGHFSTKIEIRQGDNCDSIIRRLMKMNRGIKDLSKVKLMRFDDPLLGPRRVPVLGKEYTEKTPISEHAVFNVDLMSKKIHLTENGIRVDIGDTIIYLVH
T2 sequence (P31153 whole entry): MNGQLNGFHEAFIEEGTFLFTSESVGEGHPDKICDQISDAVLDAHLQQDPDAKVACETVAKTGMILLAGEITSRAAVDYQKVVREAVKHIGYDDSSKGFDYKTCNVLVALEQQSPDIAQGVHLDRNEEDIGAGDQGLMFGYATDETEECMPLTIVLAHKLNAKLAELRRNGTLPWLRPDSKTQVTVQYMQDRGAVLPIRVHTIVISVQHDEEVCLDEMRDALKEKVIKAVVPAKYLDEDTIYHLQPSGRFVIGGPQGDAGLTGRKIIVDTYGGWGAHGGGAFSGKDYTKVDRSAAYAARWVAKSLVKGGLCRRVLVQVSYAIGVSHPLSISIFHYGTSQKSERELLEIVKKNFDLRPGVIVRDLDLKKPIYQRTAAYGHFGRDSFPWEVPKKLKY

Molecule: [Cl-].[Cl-].[Zn+2] [Zn2+, zinc chloride]
- stability of proteins containing IQ motifs [1]: destabilization in several proteins containing IQ motifs
- Zn2+-binding proteins containing zinc finger motifs [2]: 60
- stability of 26S proteasome regulatory subunits PSMC1-6 [2]: destabilization in the components of the 26S proteasome regulatory subunits
- stabilized Zn2+-binding proteins [2]: 112
- stabilized known Ca2+-binding proteins [2]: 25
- stabilized known Fe2+-binding proteins [2]: 15
- stabilized known Mg2+-binding proteins [2]: 20
- stabilized known Mn2+-binding proteins [2]: 9
- stabilized known binding proteins of other metal ions [2]: 6
- stabilized proteins that are known binding proteins of other metal ions [2]: 73
- stabilized proteins that are known metal ion-binding proteins [2]: 185
- number of proteins stabilized by Zn2+ ([2]; −log 10Pvalue>3 and log 2FC<−0.5): 280
- proportion of known metal ion-binding proteins among stabilized proteins ([2]; 19% in entire identified proteome): more than 66%

Molecule: CC(C)c1cc(-c2n[nH]c(=O)n2-c2ccc3c(ccn3C)c2)c(O)cc1O [ganetespib]
- off-target proteins MAT2A and AKR1C2 (MAT2A and AKR1C2): two previously-unreported off-target proteins of ganetespib, namely MAT2A and AKR1C2
- thermal melting temperature / stabilization of AKR1C2 (AKR1C2): significantly increased
- thermal melting temperature of MAT2A (MAT2A): significantly increased

Molecule: CS(=O)(=O)CCNCc1ccc(-c2ccc3ncnc(Nc4ccc(OCc5cccc(F)c5)c(Cl)c4)c3c2)o1 [lapatinib]
- location of significantly altered ERBB2 peptides (ERBB2 [3]; 100 nM lapatinib, |log 2(fold change)|>0.3 & −log 10(P value)>2): only within or in close proximity to the kinase domain
- resistance to proteolysis of peptides within the kinase domain of ERBB2 (ERBB2 [3]; lapatinib 100 μM, 10 μM and 1 μM): more resistant to proteolysis
- energy state changes of other kinases [4]: energy state changes in several other kinases such as CHEK2, SLK, RIPK2, and YES1
- lapatinib concentration at which maximum PTGES2 protection was reached (PTGES2 [5]; Western blotting): 50 µM
- PTGES2 protected from digestion (Western blot band intensity) (PTGES2 [5]; lapatinib 0.001-100 μM, trypsin 1:40, 37° C. 1 minute): increasing amount of PTGES2 protein protected from digestion
- affinity of lapatinib to ERBB2 (ERBB2 [6]): approximately 9 nM
- energy state change of PTGES2 (PTGES2 [7]): exhibited changes in its energy state

Molecule: CC(C)C[C@H](N)C(=O)O [leucine]
- energy state changes of LARS1, LARS2, GLUD1, SENS2 [8]: significant changes in the energy states
- energy state change of SLC1A5 (SLC1A5): significant changes in the energy state of SLC1A5
- pKd (LARS1): 4.02
- stabilization of PPIP5K1 and PPIP5K2 (PPIP5K1 and PPIP5K2): stabilized PPIP5K1 and PPIP5K2

Molecule: CN[C@@H]1C[C@H]2O[C@@](C)([C@@H]1OC)n1c3ccccc3c3c4c(c5c6ccccc6n2c5c31)C(=O)NC4 [staurosporine]
- proportion of kinases among all target proteins ([9]; K562 and HeLa): 80%
- total staurosporine target proteins in the two cell lines ([9]; K562 and HeLa): 192
- significantly changed peptides located within or within 10 residues of kinase domains ([9]; both K562 and HeLa lysates): over 92%
- number of kinase targets identified by LiP-Quant [10]: 9
- number of kinase targets identified by TPP [11]: 53
- total number of target proteins identified by TPP [11]: 60
- total number of target proteins identified [12]: 143
- total number of target proteins identified [13]: 135

Molecule: SHP099
- fold change of PTPN11 peptide at the SHP099-binding site (PTPN11; 10 μM SHP099): exhibited fold changes exclusively in PELSA experiments
- number of SHP099-responsive PTPN11 peptides, PELSA relative to LiP-MS (PTPN11; 10 μM SHP099, HeLa cell lysate): 5.25 times
- response magnitude of PTPN11 peptides to SHP099, PELSA relative to LiP-MS (PTPN11; 10 μM SHP099, HeLa cell lysate): 6.4 times

Molecule: alpha-ketoglutarate [αKG]
- previously known αKG-binding proteins among LiP-MS targets [14]: 2
- target proteins identified by LiP-MS [14]: 34
